Where two headings read alike, the source gives them in different places.
Key:
CCR2 [1] = biological target: T1, CCR2 (Homo sapiens, UniProt P41597); details: bind or taxis not given; read-out: CCR2 antagonist potency; cited from earlier work
CCR2 [2] = biological target: T1, CCR2; details: read-out: CCR2 IC(50) bind; cited from earlier work
CCR2 [3] = biological target: T2, CCR2 (Mus musculus, UniProt P51683); experiment: Antibody titers to ovalbumin after CLDC/ovalbumin vaccination with RS102895 (FIG. 33); assay type: in vivo, mice; details: 5 mg/kg 1 day before, same day, 1 day after
T2 construct: endogenous in cells
T2 sequence (P51683 whole entry): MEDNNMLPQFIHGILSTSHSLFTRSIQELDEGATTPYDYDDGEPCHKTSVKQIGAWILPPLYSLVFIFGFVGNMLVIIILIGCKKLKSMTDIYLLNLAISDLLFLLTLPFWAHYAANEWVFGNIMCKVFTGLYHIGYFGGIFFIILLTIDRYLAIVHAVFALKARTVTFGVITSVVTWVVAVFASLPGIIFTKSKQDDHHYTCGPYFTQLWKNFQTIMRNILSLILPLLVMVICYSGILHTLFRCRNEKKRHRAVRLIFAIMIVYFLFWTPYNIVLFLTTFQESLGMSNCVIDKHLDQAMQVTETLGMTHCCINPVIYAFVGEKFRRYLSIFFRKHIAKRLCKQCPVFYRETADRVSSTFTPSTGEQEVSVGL
Protocol: FIG. 33. Effects of co-administration of RS102895 (small molecule inhibitor, Tocris Bioscience), on antibody responses following vaccination via two different modes of administration i.p. (intraperitoneally) or SQ (subcutaneous). Mice were vaccinated SQ with standard vaccine adjuvant (CLDC) and 5 ug ovalbumin, and boosted 10 days later. The first group of mice (n=4 per group) received the vaccine only (cross-hatch bar). A second group of mice was vaccinated and also treated 1 day before, on the same day, and 1 day after with 5 mg/kg of the CCR2 antagonist RS102895 (horizontal line bar), administered i.p. A third group of mice was vaccinated and also treated 1 day before, on the same day, and 1 day after with 5 mg/kg of the CCR2 antagonist RS102895, administered s.c. at the site of vaccination (vertical line bar). Antibody titers to ovalbumin were determined 2 weeks after the boost and plotted as endpoint dilution titers for all animals in all groups. […]
Mice were vaccinated subcutaneous (s.c.) with standard vaccine adjuvant (CLDC) (Cationic liposome-DNA complexes) and 5 ug ovalbumin and boosted 10 days later. […] Antibody titers to ova were determined 2 weeks after the boost and plotted as endpoint dilution titers. […]

CCR2 [4] = biological target: T2, CCR2; experiment: IFN-γ release by spleen cells of vaccinated mice treated with RS102895 (FIG. 34); assay type: in vivo
Protocol: FIG. 34. Effects of co-administration of RS102895 (small molecule inhibitor, Tocris BioSciences), on spleen lymphocyte production of IFN-γ from vaccinated animals (T cell response). Mice were vaccinated s.c. with standard vaccine adjuvant (CLDC) and 5 ug ovalbumin and boosted 10 days later. A first group of mice (n=4 per group) received the vaccine only (cross-hatch). A second group of mice was vaccinated and also treated 1 day before, on the same day, and 1 day after with 5 mg/kg of the CCR2 antagonist RS102895, administered i.p. (horizontal line bar). A third group of mice was vaccinated and also treated 1 day before, on the same day, and 1 day after with 5 mg/kg of the CCR2 antagonist RS102895, administered s.q. at the site of vaccination (vertical line bar). The mice were sacrificed 2 weeks after the booster vaccination and spleen cells were incubated in vitro with ovalbumin (50 ug/ml) for 72 hours. Release of […] into the supernatants was determined by ELISA.
Mice were vaccinated s.c. with standard vaccine adjuvant (CLDC) and 5 ug ovalbumin and boosted 10 days later. One group of mice (n=4 per group) received the vaccine only. A second group of mice was vaccinated and also treated 1 day before, on the same day, and 1 day after with 5 mg/kg of the CCR2 antagonist RS102895, administered i.p. A third group of mice was vaccinated and also treated 1 day before, on the same day, and 1 day after with 5 mg/kg of the CCR2 antagonist RS102895, administered s.c. at the site of vaccination. The mice were sacrificed 2 weeks after the booster vaccination and spleen cells were incubated in vitro with ovalbumin (50 ug/ml) for 72 hours and release of IFN-γ into the supernatants was determined by ELISA. […] The data from this study is presented at FIG. 34.

human recombinant CCR2b = biological target: T3, human recombinant CCR2b (Homo sapiens, UniProt P41597); details: read-out: IC50 for inhibition of human recombinant CCR2b receptor; cited from earlier work
T3 sequence (P41597 1-360 isoform P41597-2): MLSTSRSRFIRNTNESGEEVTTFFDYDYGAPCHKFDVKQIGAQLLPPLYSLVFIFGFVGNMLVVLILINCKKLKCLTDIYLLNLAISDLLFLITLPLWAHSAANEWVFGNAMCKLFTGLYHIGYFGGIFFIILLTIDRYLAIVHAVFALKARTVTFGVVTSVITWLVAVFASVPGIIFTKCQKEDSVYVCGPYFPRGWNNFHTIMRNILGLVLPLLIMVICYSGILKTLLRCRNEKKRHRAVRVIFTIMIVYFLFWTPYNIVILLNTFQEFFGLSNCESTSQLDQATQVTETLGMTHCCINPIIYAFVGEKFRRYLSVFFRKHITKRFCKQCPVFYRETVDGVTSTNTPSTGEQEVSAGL

human recombinant CCR1 = biological target: T4, human recombinant CCR1 (Homo sapiens, UniProt P32246); details: read-out: IC50 for inhibition of human recombinant CCR1 receptor; cited from earlier work
T4 sequence (P32246 1-355): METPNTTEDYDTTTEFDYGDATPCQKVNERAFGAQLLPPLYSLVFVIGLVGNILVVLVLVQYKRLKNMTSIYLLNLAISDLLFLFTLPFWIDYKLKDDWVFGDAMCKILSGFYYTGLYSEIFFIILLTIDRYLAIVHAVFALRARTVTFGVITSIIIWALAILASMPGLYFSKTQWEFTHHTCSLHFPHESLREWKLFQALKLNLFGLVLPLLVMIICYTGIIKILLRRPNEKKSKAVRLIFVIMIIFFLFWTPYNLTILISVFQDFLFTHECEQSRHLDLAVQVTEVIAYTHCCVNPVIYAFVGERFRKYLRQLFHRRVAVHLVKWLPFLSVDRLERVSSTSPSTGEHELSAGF

[5] = tested on: MCP-1-stimulated calcium influx; details: read-out: IC50, block of MCP-1-stimulated calcium influx; cited from earlier work
[6] = tested on: MCP-1-stimulated chemotaxis; details: read-out: IC50, block of MCP-1-stimulated chemotaxis; cited from earlier work
α1A receptor = biological target: T5, α1A receptor (Homo sapiens, UniProt P35348); details: cited from earlier work
T5 sequence (P35348 1-466): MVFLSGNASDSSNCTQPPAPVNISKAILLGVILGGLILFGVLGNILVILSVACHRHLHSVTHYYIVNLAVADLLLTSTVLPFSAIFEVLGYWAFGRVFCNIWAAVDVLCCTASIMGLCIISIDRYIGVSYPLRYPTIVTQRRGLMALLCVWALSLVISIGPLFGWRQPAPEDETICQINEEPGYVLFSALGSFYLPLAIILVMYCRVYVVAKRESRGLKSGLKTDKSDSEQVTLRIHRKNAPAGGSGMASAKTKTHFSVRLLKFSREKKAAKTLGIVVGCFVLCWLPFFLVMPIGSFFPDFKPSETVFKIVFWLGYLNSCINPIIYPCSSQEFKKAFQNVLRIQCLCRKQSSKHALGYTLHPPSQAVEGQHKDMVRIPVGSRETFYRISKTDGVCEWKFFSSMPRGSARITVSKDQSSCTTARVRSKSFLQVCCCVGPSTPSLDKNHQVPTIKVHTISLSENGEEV

α1D receptor = biological target: T6, α1D receptor (Homo sapiens, UniProt P25100); details: cited from earlier work
T6 sequence (P25100 1-572): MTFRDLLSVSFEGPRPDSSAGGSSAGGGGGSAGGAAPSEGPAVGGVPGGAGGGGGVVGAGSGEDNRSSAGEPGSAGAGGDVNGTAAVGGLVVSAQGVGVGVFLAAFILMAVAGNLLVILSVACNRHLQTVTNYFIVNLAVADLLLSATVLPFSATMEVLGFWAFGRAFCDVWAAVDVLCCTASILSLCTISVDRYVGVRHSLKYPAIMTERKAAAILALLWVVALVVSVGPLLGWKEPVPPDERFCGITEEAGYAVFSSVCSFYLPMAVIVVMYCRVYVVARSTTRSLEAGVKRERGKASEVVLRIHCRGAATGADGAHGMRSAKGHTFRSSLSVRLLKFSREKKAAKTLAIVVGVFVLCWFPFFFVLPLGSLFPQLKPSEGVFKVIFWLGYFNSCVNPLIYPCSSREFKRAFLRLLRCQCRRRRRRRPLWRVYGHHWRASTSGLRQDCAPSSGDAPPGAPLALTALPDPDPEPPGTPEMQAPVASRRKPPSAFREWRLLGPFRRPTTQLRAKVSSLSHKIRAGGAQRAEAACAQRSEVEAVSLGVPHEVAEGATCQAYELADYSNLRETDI

5-HT1A receptor = details: cited from earlier work

T1 sequence (P41597 whole entry, species assumed): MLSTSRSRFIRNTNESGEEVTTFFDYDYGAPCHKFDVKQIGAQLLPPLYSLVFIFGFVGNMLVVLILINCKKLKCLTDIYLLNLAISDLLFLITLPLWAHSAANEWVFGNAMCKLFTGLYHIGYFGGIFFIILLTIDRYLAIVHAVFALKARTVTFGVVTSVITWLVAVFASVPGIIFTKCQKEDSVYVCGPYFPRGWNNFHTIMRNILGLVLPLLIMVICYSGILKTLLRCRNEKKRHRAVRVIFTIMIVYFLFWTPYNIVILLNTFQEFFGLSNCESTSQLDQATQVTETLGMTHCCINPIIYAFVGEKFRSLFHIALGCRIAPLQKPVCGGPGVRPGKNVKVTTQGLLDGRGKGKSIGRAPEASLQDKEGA

SMILES: O=C(CNC(=O)c1ccccc1)NC1CCN(Cc2ccccc2)C1 (stereo not drawn) [3-Aminopyrrolidines]
- IC50 (CCR2 [1]): 3 nM

SMILES: CN(CCN1CCCCC1)c1ccc(-c2nc3cc(Sc4ccc(Cl)c(Cl)c4)ccc3[nH]2)cc1 [Benzimidazoles]
- IC50 (CCR2 [2]): 200 to 300 nM

SMILES: Cl.O=C1Nc2ccccc2C2(CCN(CCc3ccc(C(F)(F)F)cc3)CC2)O1 [RS102895]
- antibody titers to ova relative to vaccine alone (CCR2 [3]; either route): ≥ 2 ×
- antibody titers to ovalbumin vs vaccine alone (CCR2 [3]; i.p. or s.c., 2 weeks after boost): significantly higher antibody titers
- IFN-γ production by spleen cells (CCR2 [4]; 5 mg/kg SQ at site of vaccination, ovalbumin 50 ug/ml 72 hours, without CCR2 antagonist about 450): about 1,400 pg/ml
- IFN-γ production by spleen lymphocytes (CCR2 [4]; 5 mg/kg i.p., ovalbumin 50 ug/ml 72 hours, without CCR2 antagonist about 450): about 2,300 pg/ml
- IFN-γ production vs vaccinated without RS102895 (CCR2 [4]; 5 mg/kg, either route): significantly higher amounts of IFN-γ
- IC50 (human recombinant CCR2b): 360 nM
- IC50 (human recombinant CCR1): 17800 nM
- IC50 [5]: 32 nM
- IC50 [6]: 1700 nM
- inhibition of α1A receptor (α1A receptor): inhibits
- inhibition of α1D receptor (α1D receptor): inhibits
- inhibition of 5-HT1A receptor (5-HT1A receptor): inhibits

SMILES: O=C(/C=C/c1ccc(Cl)c(Cl)c1)NC1CCC(CN2C3CCC2CC(c2c[nH]c4ccc(O)cc24)C3)CC1 (stereo not drawn) [SB-380732]
- IC50 (CCR2 [2]): 50 nM

From US9320735B2, “Myeloid derived suppressor cell inhibiting agents” (Colorado State University Research Foundation, priority 2010, dated 2016)
